In this data set the test system is N2a cells. The data set is described as follows: MTT assay, cytotoxicity to N2a cells. Particulars: for cell death: 0.5 nM; for IC50: 72 hours, read-out: half-inhibitory concentration (IC50) on cell viability. In kind it is cell-based. As for the experimental part:
This experiment mainly used the MTT assay to detect the toxicity of Aβ aggregates to neurons. The specific procedure was as follows: N2a cells were cultured in DMEM medium containing 10% FBS and 1% penicillin/streptomycin. The cells in the culture dish were digested with trypsin, centrifuged, and resuspended in the medium, and then inoculated in a 96-well plate, with about 5,000 cells/100 µL medium per well. After 12 hours, the cells were treated with a series of concentration gradients of sApo*3F and sAβos, and the same volume of solvent was added to the cells as a control. After 72 hours, 25 µL 5 mg/mL MTT was added to each well. After further culture at 37 °C for 3 hours, the medium was aspirated and 150 µL DMSO was added. The absorbance at 570 nm and 630 nm was measured using an MD-M5 microplate reader. The average value of six replicate wells was used for each sample and control, and each experiment was repeated three times. Cell viability was calculated by dividing the absorbance (background corrected) of the sample well with the absorbance (background corrected) of the well added with solvent.

In the case of “sApo*3F: Aβo*3F prepared in vitro: Aβ monomers incubated 2 days, immunoprecipitated with the antibody 3F”, the cell death came out at 66%. For the same substance, where the note is “MTT”, the “difference between the two IC50s (sAβos before immunoprecipitation vs sApo*3F)” value worked out at 340 fold and the IC50 was ~0.186 nM.

With “sAβos: Aβos prepared in vitro, 10 µM Aβ, 2-day incubation, before immunoprecipitation”, the cell death result is “no substantial neurotoxic effect”. The substance also showed a cytotoxicity / neurotoxicity (200 nM) of 70%. Also, under “MTT”, the IC50 was ~63.3 nM.

The values are drawn from patent publication EP4571315A1, “DIAGNOSTIC USE OF HIGHLY TOXIC AMYLOID OLIGOMER” (Shen Zhen Wisdom Biopharm Co., Ltd., priority 2022, dated 2024).
